# According to patent US7052714B1, “Ophthalmic adhesive preparations for percutaneous adsorption” (Senju Pharmaceutical Co., LTD, priority 1999, dated 2006):
# “And” between values parts separate entries of the source, which are not always exact repeats. Equal entries are not always repeated. Where two headings read alike, the source gives them in different places.
# Columns and labels:
# [1] = In vivo test-1: transfer of drugs from transdermal patches to the plasma and ocular tissues
# Method: (§1) 0.5-ml blood sampling was performed over time through a sampling port of the cannula placed on the occipital region of the rat's head. For measurement of transfer of the drug to the ocular tissues, rats were euthanized with an excess amount of sodium pentobarbital solution and the ocular tissues were removed. The tissues were pretreated, extracted and measured to determine the concentration of the drug by HPLC.
# (§2) Determination of the concentration of N-(4-fluorophenylsulfonyl)-L-valyl-L-leucinal in the samples was carried out by HPLC under the following conditions.
# [2] = In vivo test-2: SJA6017 transdermal patch, transfer to the plasma and ocular tissues; set-up: species or system Wistar/ST rats; settings: transdermal application, 12 hours after application
# From the text: A study of SJA6017-containing transdermal patch according to the formula below was made for examining transfer of SJA6017 from the patch to the plasma and to the ocular tissues, and comparison of the results with those from intravenous injection was also made.
# The hair was removed under anesthesia with a clipper and a shaver carefully to avoid injuring the skin. A SJA6017 transdermal patch having a drug-containing layer according to the above formula with the size of 5.0×6.0 cm (30 cm^2) was applied to the animals (n=10) of the percutaneous administration group on the abdominal skin and secured in position with a supporting tape to prevent it from falling. After 12 hours of application, the animals were sacrificed and the blood was collected from the abdominal aorta, and the plasma separated. The eyes were excised at the same time. Each of the eyes was separated into the aqueous humor, the lens and the other tissues (consisting of the cornea, the sclera, the iris-ciliary body, the vitreous body and the retina-choroid), and corresponding tissues separated from the 20 eyes were combined, respectively, to make a sample.
# [3] = In vivo test-2: intravenous administration experiment; set-up: species or system Wistar rats; settings: intravenous injection 2 mg/kg, rat, 15 minutes after injection
# Method: An intravenous administration experiment was carried out using 5 male Wistar rats (body weight approx. 600 g: 592±34 g) by administering 2 mg/kg SJA6017 through the tail vein of the animals under pentobarbital anesthesia. For the administration, a solution was used containing 10 mg SJA6017 dissolved in 10 ml mixture of ethanol/PEG400/water (1/2/1). Fifteen minutes after the intravenous administration, the animals were sacrificed, the blood was collected through the abdominal aorta, and the plasma separated. The eyes were excised at the same time. Each of the eyes was separated into the aqueous humor, the lens and the other tissues (consisting of the cornea, the sclera, the iris-ciliary body, the vitreous body and the retina-choroid), and corresponding tissues separated from the 10 eyes were combined, respectively, to make a sample.
# [4] = male, Wistar/ST, rat, in vivo
# Method: as §1, §2
# in vivo = settings: male, Wistar/ST, rat
# Method: as §1, §2
# [5] = male, Wistar/ST, rat, plasma, other: transdermal patch applied on the abdominal skin, 10 cm^2
# [6] = male, Wistar/ST, rat, plasma, other: transdermal patch applied on the abdominal skin, 10 cm^2 patch
structure (smiles),measurement,setting,value
"CC(C)C[C@@H](C=O)NC(=O)[C@@H](NS(=O)(=O)c1ccc(F)cc1)C(C)C [SJA6017, N-(4-fluorophenylsulfonyl)-L-valyl-L-leucinal]",time after application at which plasma concentration reached the peak,"[1]; SJA6017 patch No. S4, 10 cm^2, rat",12 h
same,plasma concentration 24 hours after application relative to its peak,"[1]; SJA6017 patch No. S4, 10 cm^2, rat, 24 hours",about 85%
same,concentration at 8 h,[1]; [5],50 ng/mL
same,concentration at 12 h,[1]; [5],114 ng/mL
same,concentration at 18 h,[1]; [5],68 ng/mL
same,concentration at 24 h,[1]; [5],98 ng/mL
same,concentration at 0 h,[1]; [6],0 ng/mL
same,concentration at 2 h,[1]; [6],30 ng/mL
same,concentration at 4 h,[1]; [6],36 ng/mL
same,concentration at 6 h,[1]; [6],58 ng/mL
same,concentration at 12 h,"[2]; male, Wistar/ST, eye (ocular tissues), other: transdermal patch applied on the abdominal skin, 30 cm^2 patch, 5 W/W% SJA6017 patch 30 cm^2, rat, read-out: Intraocular concentration",7.2 ng/g
same,concentration at 12 h,"[2]; male, Wistar/ST, lens, other: transdermal patch applied on the abdominal skin, 30 cm^2 patch, SJA6017 patch 30 cm^2, rat, read-out: Intraocular concentration, itemized: Lens",1.1 ng/g
same,concentration at 12 h,"[2]; male, Wistar/ST, other: transdermal patch applied on the abdominal skin, 30 cm^2 patch, SJA6017 patch 30 cm^2, rat, read-out: Intraocular concentration, itemized: Other ocular tissues (cornea, sclera, iris-ciliary body, vitreous body, retina-choroid)",13.8 ng/g
same,concentration at 12 h,"[2]; male, Wistar/ST, plasma, other: transdermal patch applied on the abdominal skin, 30 cm^2 patch, 5 W/W% SJA6017 patch 30 cm^2, rat, read-out: Plasma concentration",47 ± 12 ng/mL
same,Kp at 12 h,"[2]; male, Wistar/ST, rat, eyeball/plasma, other: transdermal patch applied on the abdominal skin, 30 cm^2 patch, SJA6017 patch 30 cm^2, rat, read-out: Eyeball/plasma ratio",~0.16
same,"Intraocular concentration, itemized: Aqueous humor","[2]; SJA6017 patch 30 cm^2, rat",not detected
same,Lens: ratio to plasma concentration (100%),"[2]; SJA6017 patch 30 cm^2, rat",(2.3%)*^2
same,Other ocular tissues: ratio to plasma concentration (100%),"[2]; SJA6017 patch 30 cm^2, rat",(29.6%)*^2
same,"Intraocular concentration, itemized: Aqueous humor",[3],not detected
same,"Intraocular concentration, itemized: Lens",[3],not detected
same,Other ocular tissues: ratio to plasma concentration (100%),[3],(27.8%)*^2
same,Eyeball/plasma ratio,[3]; 2 mg/kg,13%
same,concentration at 15 min,"[3]; male, Wistar, eye (ocular tissues), read-out: Intraocular concentration",16 ng/g
same,Kp at 15 min,"[3]; male, Wistar, eyeball/plasma, read-out: Eyeball/plasma ratio",0.13
same,concentration at 15 min,"[3]; male, Wistar, plasma, read-out: Plasma concentration",120 ± 16 ng/mL
same,concentration at 15 min,"[3]; male, Wistar, read-out: Intraocular concentration, itemized: Other ocular tissues (cornea, sclera, iris-ciliary body, vitreous body, retina-choroid)",33.4 ng/g
"C[C@]12C=CC(=O)C=C1CC[C@@H]1[C@@H]2[C@@H](O)C[C@@]2(C)[C@H]1CC[C@]2(O)C(=O)CO [Prednisolone, prednisolone]",time after application at which plasma concentration reached the peak,[4],8 h
same,concentration at 0 h,in vivo,0 ng/mL
same,concentration at 2 h,in vivo,220 ng/mL
same,concentration at 4 h,in vivo,288 ng/mL
same,concentration at 6 h,in vivo,70 ng/g and 385 ng/mL
same,concentration at 8 h,in vivo,608 ng/mL
same,concentration at 12 h,in vivo,148 ng/mL
same,concentration at 18 h,in vivo,99 ng/mL
same,concentration at 24 h,in vivo,77 ng/mL
